Assay results from US20240018123A1, “COMPOUND FOR INHIBITING OR DISINTEGRATING ANDROGEN RECEPTOR, AND PHARMACEUTICAL USE THEREOF” (KOREA RESEARCH INSTITUTE OF CHEMICAL TECHNOLOGY, priority 2020, published 2024).
Where two headings read alike, the source gives them in different places.

How the values were obtained:
Androgen receptor (AR) = biological target: T1, Androgen receptor (AR) (Homo sapiens, UniProt P10275, T878A); assay: Assessment of AR proteolytic activity (Western blotting of LNCap cell lysates); type: cell-based; details: 24 hours of treatment, Western blotting quantified with Image J; for remaining activity at 1 µM: read-out: Degradation (1 μM treated in LNCaP, % AR remaining)
T1 construct: 5.5×10^5 LNCap cells were injected into each well of a 6-well plate; endogenous in cells; host or cells: LNCaP
T1 sequence (P10275 1-920 T878A): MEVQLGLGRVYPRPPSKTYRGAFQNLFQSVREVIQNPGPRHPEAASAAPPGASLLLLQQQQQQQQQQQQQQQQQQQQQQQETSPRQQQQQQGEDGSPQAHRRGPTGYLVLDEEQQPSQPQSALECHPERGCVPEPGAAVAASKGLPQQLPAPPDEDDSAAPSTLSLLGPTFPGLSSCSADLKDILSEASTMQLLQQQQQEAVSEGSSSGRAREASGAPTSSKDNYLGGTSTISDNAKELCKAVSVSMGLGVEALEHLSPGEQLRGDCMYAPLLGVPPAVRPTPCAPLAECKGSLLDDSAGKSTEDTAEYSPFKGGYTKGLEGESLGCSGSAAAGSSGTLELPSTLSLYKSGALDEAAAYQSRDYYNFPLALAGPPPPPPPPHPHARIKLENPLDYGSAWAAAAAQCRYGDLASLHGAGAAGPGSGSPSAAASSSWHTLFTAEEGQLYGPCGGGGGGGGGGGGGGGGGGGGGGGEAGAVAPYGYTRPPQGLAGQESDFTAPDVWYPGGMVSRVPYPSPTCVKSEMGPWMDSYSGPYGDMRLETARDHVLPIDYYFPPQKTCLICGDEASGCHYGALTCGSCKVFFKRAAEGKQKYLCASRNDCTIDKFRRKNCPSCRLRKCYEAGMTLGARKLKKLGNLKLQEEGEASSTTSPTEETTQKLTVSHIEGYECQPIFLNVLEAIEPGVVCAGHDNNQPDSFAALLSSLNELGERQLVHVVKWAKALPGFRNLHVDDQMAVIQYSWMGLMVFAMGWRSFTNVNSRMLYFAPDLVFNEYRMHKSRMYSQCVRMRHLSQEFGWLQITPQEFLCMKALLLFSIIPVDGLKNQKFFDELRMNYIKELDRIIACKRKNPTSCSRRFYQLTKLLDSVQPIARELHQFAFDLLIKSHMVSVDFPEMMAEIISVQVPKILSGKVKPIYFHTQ
Summary of the method: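 LNCap cells seeded at 5.5×10^5 per well and treated with compound for 24 hours. Lysates prepared in RIPA buffer (pH 7.5, with protease inhibitors). AR protein levels assessed by Western blot with densitometric quantification.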

VCaP cells = assay: Cytotoxicity assessment (Cell-titer-glo cell viability), VCaP
[1] = read-out: VCaP (CC50), VCaP cells, 6 days of treatment, Cell-titer-glo, vs DMSO
[2] = Homo sapiens, VCaP, 144 h, read-out: VCaP (CC50, μM)

remaining activity at 1 µM (Androgen receptor (AR)) [%]	Structure (SMILES)	Degradation (1 μM treated in LNCaP, % AR remaining) (Androgen receptor (AR)) [%]	CC50 (VCaP cells; [1]) [µM]	CC50 (VCaP cells; [2]) [µM]
	CC1(C)[C@H](NC(=O)c2ccc(C#CCC3CCN(C(=O)C4CCN(c5ccc6nnn(C7CCC(=O)NC7=O)c(=O)c6c5)CC4)CC3)cc2)C(C)(C)[C@H]1Oc1ccc(C#N)c(Cl)c1 (stereo partly drawn) [Example 86, N-((1r,3r)-3-(3-chloro-4-cyanophenoxy)-2,2,4,4-tetramethylcyclobutyl)-4-(3-(1-(1-(3-(2,6-dioxopiperidin-3-yl)-4-oxo-3,4-dihydrobenzo[d][1,2,3]triazin-6-yl)piperidine-4-carbonyl)piperidin-4-yl)prop-1-yn-1-yl)benzamide]	20	0.0349	
	CC1(C)[C@H](NC(=O)c2ccc(C3CCN(CC4CCN(C(=O)C5CCN(c6ccc7nnn(C8CCC(=O)NC8=O)c(=O)c7c6)CC5)CC4)CC3)cc2)C(C)(C)[C@H]1Oc1ccc(C#N)c(Cl)c1 (stereo partly drawn) [Example 51, N-((1r,3r)-3-(3-chloro-4-cyanophenoxy)-2,2,4,4-tetramethylcyclobutyl)-4-(1-((1-(1-(3-(2,6-dioxopiperidin-3-yl)-4-oxo-3,4-dihydrobenzo[d][1,2,3]triazin-6-yl)piperidine-4-carbonyl)piperidin-4-yl)methyl)piperidin-4-yl)benzamide]	10.4	0.228	
	CC1(C)C(NC(=O)c2ccc(N3CCN(CC4CCN(C(=O)C5CCN(c6ccc7nnn(C8CCC(=O)NC8=O)c(=O)c7c6)CC5)CC4)CC3)nc2)C(C)(C)C1Oc1ccc(C#N)c(Cl)c1 (stereo not drawn) [Example 81, N-((1r,3r)-3-(3-chloro-4-cyanophenoxy)-2,2,4,4-tetramethylcyclobutyl)-6-(4-((1-(1-(3-(2,6-dioxopiperidin-3-yl)-4-oxo-3,4-dihydrobenzo[d][1,2,3]triazin-6-yl)piperidine-4-carbonyl)piperidin-4-yl)methyl)piperazin-1-yl)nicotinamide]	18	0.0238	
	CC1(C)C(NC(=O)c2ccc(N3CCN(CCCOC4CCN(C(=O)C5CCN(c6ccc7nnn(C8CCC(=O)NC8=O)c(=O)c7c6)CC5)CC4)CC3)cc2)C(C)(C)C1Oc1ccc(C#N)c(Cl)c1 (stereo not drawn) [Example 35, N-((1r,3r)-3-(3-chloro-4-cyanophenoxy)-2,2,4,4-tetramethylcyclobutyl)-4-(4-(3-((1-(1-(3-(2,6-dioxopiperidin-3-yl)-4-oxo-3,4-dihydrobenzo[d][1,2,3]triazin-6-yl)piperidine-4-carbonyl)piperidin-4-yl)oxy)propyl)piperazin-1-yl)benzamide]	6.4	0.0525	
	CC1(C)C(NC(=O)c2cnc(N3CCN(CC4CCN(c5ccc6nnn(C7CCC(=O)NC7=O)c(=O)c6c5)CC4)CC3)cn2)C(C)(C)C1Oc1ccc(C#N)c(Cl)c1 (stereo not drawn) [Example 79, N-((1r,3r)-3-(3-chloro-4-cyanophenoxy)-2,2,4,4-tetramethylcyclobutyl)-5-(4-((1-(3-(2,6-dioxopiperidin-3-yl)-4-oxo-3,4-dihydrobenzo[d][1,2,3]triazin-6-yl)piperidin-4-yl)methyl)piperazin-1-yl)pyrazine-2-carboxamide]	45	0.2	
	CC1(C)C(NC(=O)c2ccc(N3CCN(CC4(F)CCN(C(=O)C5CCN(c6ccc7nnn(C8CCC(=O)NC8=O)c(=O)c7c6)CC5)CC4)CC3)cc2)C(C)(C)C1Oc1ccc(C#N)c(Cl)c1 (stereo not drawn) [Example 62, N-((1r,3r)-3-(3-chloro-4-cyanophenoxy)-2,2,4,4-tetramethylcyclobutyl)-4-(4-((1-(1-(3-(2,6-dioxopiperidin-3-yl)-4-oxo-3,4-dihydrobenzo[d][1,2,3]triazin-6-yl)piperidine-4-carbonyl)-4-fluoropiperidin-4-yl)methyl)piperazin-1-yl)benzamide]	15	0.0345	
	CC1(C)C(NC(=O)c2ccc(N3CCN(CC4CCN(C(=O)C5CN(c6ccc7nnn(C8CCC(=O)NC8=O)c(=O)c7c6)C5)CC4)CC3)nc2)C(C)(C)C1Oc1ccc(C#N)c(Cl)c1 (stereo not drawn) [Example 80, N-((1r,3r)-3-(3-chloro-4-cyanophenoxy)-2,2,4,4-tetramethylcyclobutyl)-6-(4-((1-(1-(3-(2,6-dioxopiperidin-3-yl)-4-oxo-3,4-dihydrobenzo[d][1,2,3]triazin-6-yl)azetidine-3-carbonyl)piperidin-4-yl)methyl)piperazin-1-yl)nicotinamide]	56	0.01	
	CC1(C)C(NC(=O)c2ccc(N3CCN(CC4(O)CCN(C(=O)C5CCN(c6ccc7nnn(C8CCC(=O)NC8=O)c(=O)c7c6)CC5)CC4)CC3)cc2)C(C)(C)C1Oc1ccc(C#N)c(Cl)c1 (stereo not drawn) [Example 55, N-((1r,3r)-3-(3-chloro-4-cyanophenoxy)-2,2,4,4-tetramethylcyclobutyl)-4-(4-((1-(1-(3-(2,6-dioxopiperidin-3-yl)-4-oxo-3,4-dihydrobenzo[d][1,2,3]triazin-6-yl)piperidine-4-carbonyl)-4-hydroxypiperidin-4-yl)methyl)piperazin-1-yl)benzamide]	8.6	0.0365	
	CC1(C)C(NC(=O)c2ccc(N3CCN(CC4CCN(CCNC(=O)C5CCN(c6ccc7nnn(C8CCC(=O)NC8=O)c(=O)c7c6)CC5)CC4)CC3)cc2)C(C)(C)C1Oc1ccc(C#N)c(Cl)c1 (stereo not drawn) [Example 68, N-(2-(4-((4-(4-(((1r,3r)-3-(3-chloro-4-cyanophenoxy)-2,2,4,4-tetramethylcyclobutyl)carbamoyl)phenyl)piperazin-1-yl)methyl)piperidin-1-yl)ethyl)-1-(3-(2,6-dioxopiperidin-3-yl)-4-oxo-3,4-dihydrobenzo[d][1,2,3]triazin-6-yl)piperidine-4-carboxamide]	26	0.162	
	CC1(C)[C@H](NC(=O)c2ccc(N3CCN(C(=O)C4CCN(c5ccc6nnn(C7CCC(=O)NC7=O)c(=O)c6c5)CC4)CC3)cc2)C(C)(C)[C@H]1Oc1ccc(C#N)c(Cl)c1 (stereo partly drawn) [Example 42, N-((1r,3r)-3-(3-chloro-4-cyanophenoxy)-2,2,4,4-tetramethylcyclobutyl)-4-(4-(1-(3-(2,6-dioxopiperidin-3-yl)-4-oxo-3,4-dihydrobenzo[d][1,2,3]triazin-6-yl)piperidine-4-carbonyl)piperazin-1-yl)benzamide]	10	0.0494	
6.8	CC1(C)[C@H](NC(=O)c2ccc(C3CCN(CC4CCN(c5ccc6nnn(C7CCC(=O)NC7=O)c(=O)c6c5)CC4)CC3)cc2)C(C)(C)[C@H]1Oc1ccc(C#N)c(Cl)c1 (stereo partly drawn) [Example 50, N-((1r,3r)-3-(3-chloro-4-cyanophenoxy)-2,2,4,4-tetramethylcyclobutyl)-4-(1-((1-(3-(2,6-dioxopiperidin-3-yl)-4-oxo-3,4-dihydrobenzo[d][1,2,3]triazin-6-yl)piperidin-4-yl)methyl)piperidin-4-yl)benzamide]			0.223
8.6	CC1(C)[C@H](NC(=O)c2ccc(N3CCC(CN4CCN(C(=O)C5CCN(c6ccc7nnn(C8CCC(=O)NC8=O)c(=O)c7c6)CC5)CC4)CC3)cc2)C(C)(C)[C@H]1Oc1ccc(C#N)c(Cl)c1 (stereo partly drawn) [Example 49, N-((1r,3r)-3-(3-chloro-4-cyanophenoxy)-2,2,4,4-tetramethylcyclobutyl)-4-(4-((4-(1-(3-(2,6-dioxopiperidin-3-yl)-4-oxo-3,4-dihydrobenzo[d][1,2,3]triazin-6-yl)piperidine-4-carbonyl)piperazin-1-yl)methyl)piperidin-1-yl)benzamide]			0.0678
